Reference: patent US7858295B2, “Methods for prolonging survival of platelets using UDP-galactose” (Velico Medical, Inc., priority 2002, dated 2010)

Legend:
THP-1 cells = experiment: In vitro phagocytic assay: ingestion of CM-Orange-labeled chilled or room temperature human platelets by THP-1 phagocytes (flow cytometry); assay type: cell-based; conditions: for % inhibition phagocytosis / inhibitory effect on chilled platelet phagocytosis (in words): chilled platelets; for inhibitory effect on chilled platelet phagocytosis (in words): various concentrations; for inhibitory effect on RT platelet phagocytosis (in words): room temperature platelets
Experimental: CR3 expression was monitored by flow cytometry using a PE-conjugated anti-human CD11b/Mac-1 mAb. Undifferentiated or differentiated THP-1 cells (2×10^6/ml) were plated onto 24-well plates and allowed to adhere for 45 minutes at 37° C. The adherent undifferentiated or differentiated macrophages were activated by the addition of 15 ng/ml PMA for 15 min. CM-range-labeled, chilled or room temperature platelets (10^7/well), previously subjected to different treatments were added to the undifferentiated or differentiated phagocytes in Ca^2+- and Mg^2+-containing HBSS and incubated for 30 min at 37° C. Following the incubation period, the phagocyte monolayer was washed with HBSS for 3 times, and adherent platelets were removed by treatment with 0.05% trypsin/0.53 mM EDTA in HBSS at 37° C. for 5 min followed by 5 mM EDTA at 4° C. to detach the macrophages for flow cytometric analysis of adhesion or ingestion of platelets (Brown et al., 2000). […] CM-Orange-labeled platelets incubated with macrophages were resolved from the phagocytes according to their forward and side scatter properties. The macrophages were gated, 10,000 events acquired for each sample, and data analyzed with CELLQuest software (Becton Dickenson).
To analyze the effects of monosaccharides on platelet phagocytosis, phagocytes (differentiated monocytic cell line THP-1) were incubated in monosaccharide solutions at various concentrations, and the chilled or room temperature platelets were added. Values in the Figures are means±SD of 3-5 experiments comparing percentages of orange-positive monocytes containing ingested platelets incubated with RT or chilled platelets).

human platelets = experiment: FITC-lectin (WGA, S-WGA, RCA I) binding to chilled or room temperature platelets by flow cytometry; assay type: cell-based; conditions: alone
Experimental: We then investigated whether wheat germ agglutinin (WGA), a lectin with specificity towards the terminal sugar (GlcNAc), binds more effectively to chilled platelets than to room temperature platelets. Washed, chilled or room temperature platelets were incubated with 2 μg/ml of FITC coupled WGA or FITC coupled succinyl-WGA for 30 min at room temperature and analyzed by flow cytometry. FIGS. 9A and 9B show the dot plots after incubation with FITC-WGA of room temperature (RT) or chilled (Cold) human platelets.
To analyze whether removal of GlcNAc residues reduces the binding of WGA to the platelet surface, chilled and room temperature washed human platelets were treated with 100 U/ml β-Hex for 30 min at 37° C.

SMILES	inhibitory effect on chilled platelet phagocytosis (in words) (THP-1 cells)	inhibitory effect on RT platelet phagocytosis (in words) (THP-1 cells)	also measured
CC(=O)N[C@@H]1[C@@H](O)[C@H](O)[C@@H](CO)O[C@H]1O [β-GlcNac]	strongly inhibited	–	% inhibition phagocytosis (THP-1 cells; 0.01 mM (10 μM) monosaccharide, listed as β-anomer of GlcNAc): 80%
O=c1ccn([C@@H]2O[C@H](COP(=O)(O)OP(=O)(O)O)[C@@H](O)[C@H]2O)c(=O)[nH]1 [UDP]	–	–	effect on S-WGA or RCA I binding to chilled or room temperature human platelets (human platelets): no effect
CC(=O)N[C@H]1C(O)O[C@H](CO)[C@@H](O)[C@@H]1O (stereo partly drawn) [GlcNac, N-acetyl-D-glucosamine]	significantly inhibited	–	–
CO[C@H]1O[C@H](CO)[C@@H](O)[C@H](O)[C@@H]1O [Methyl-α-D-mannopyranoside]	no inhibitory effect	no inhibitory effect	–
O=C[C@@H](O)[C@@H](O)[C@H](O)[C@H](O)CO [D-(+)-mannose]	no inhibitory effect	no inhibitory effect	–
CO[C@@H]1O[C@H](CO)[C@@H](O)[C@H](O)[C@@H]1O [Methyl-β-D-mannopyranoside]	no inhibitory effect	no inhibitory effect	–
CO[C@H]1O[C@H](CO)[C@@H](O)[C@H](O)[C@H]1O [Methyl-α-D-glucopyranoside]	did not have an inhibitory effect	–	–
COC1OC(CO)C(O)C(O)C1O [Methyl-β-D-gludopyranoside]	dose-dependent manner	–	–
O=C[C@H](O)[C@@H](O)[C@@H](O)[C@H](O)CO [D-(+)-galactose]	–	–	% inhibition phagocytosis (THP-1 cells; phagocytes incubated with 100 mM monosaccharide): did not significantly inhibit
